Assay: Agway test of powder flowability (glass funnel, 11-mm opening)
Format: physicochemical
Conditions: 100 g, 11-mm funnel opening
Experimental: Granulated EGCG was compared with EGCG powder (the starting material for granulation) for powder flowability using the Agway test. In that test, flowability is determined by placing 100 gram of the granules in a glass funnel with a 11-mm opening, which is sealed temporarily. The measurement is started by releasing the seal. Flowability is determined as the time for the entire powder to flow through the funnel in seconds per 100 g of granule.

Powder flowability (result in words): did not flow
Substance: (−)-epigallocatechin gallate [EGCG powder]
